# Laboratory results: US5006468A, “Novel urease and method of producing the same” (Suntory Limited, priority 1987, dated 1991)
# System: urease produced by Arthrobacter mobilis SAM0752 (FERM BP-2127)
# Test: Km value for urea of the purified urease
# Format: biochemical
# Details: 0.1M acetic acid buffer (pH 4.5), 37° C.
# Method: The activity was determined by measuring the amount of ammonia produced by decomposition of urea during the enzyme reaction per unit of time. In particular, 0.025 ml of an enzyme solution was added to a reaction solution containing 0.2 ml of a 0.1M acetic acid buffer (pH 4.5) and 0.025 ml of a 0.1M urea solution, followed by incubation at 37° C. for a given time (10 to 20 minutes). The reaction was terminated by adding 0.025 ml of a 33% trichloroacetic acid solution. […] of the reaction solution was added to 1 ml of a coloring solution which had been prepared by mixing 10 ml of a 0.3M phosphate buffer (pH 7.5), 0.56 ml of 25 mg/ml o-phthalaldehyde in ethanol, and 0.56 ml of 5 mg/ml 2-mercaptoethanol in ethanol. After allowing the thus-obtained mixture to stand for 45 minutes at room temperature, the increase in absorbance at a wavelength of 410 nm was measured. The enzyme activity was then calculated from a calibration curve which was formed using predetermined amounts of ammonium chloride as a reference substance. This method was based on the method by Heini et al. [Eur. J. Biochem., 162, 541 (1987)]. The activity unit of the enzyme was defined as the amount of ammonia produced in terms of μ mol/min.
compound,measurement,setting,value
NC(N)=O [urea],Km,20% ethanol added,~3.7 mM
same,Km,no ethanol added,~3.6 mM
